ChEMBL document CHEMBL5154881, “Discovery of First-in-Class TAK1-MKK3 Protein-Protein Interaction (PPI) Inhibitor (R)-STU104 for the Treatment of Ulcerative Colitis through Modulating TNF-α Production” (J Med Chem, 2022)
pIC50: −log10 of the molar value.

Columns and labels:
P-gp (human) = assay: Apparent permeability in dog MDCK-MDR1 cells transfected with human P-gp; assay type: ADME, cell-based, Canis lupus familiaris
[1] = AUC (0 to infinity) in 12 hr starved C57 mouse at 5 mg/kg, iv measured for 0.083 to 24 hrs post-dose by LC-MS-MS analysis; assay type: ADME, organism-based; set-up: time upper 24 hrs, time lower 0.083 hrs, dose 5 mg/kg, route iv; conditions: in vivo
Mus musculus [2] = assay: Anti-ulcerative colitis activity against DSS-induced ulcerative colitis C57BL/6 mouse model assessed as body weight recovery rate at 3 mg/kg, IG via gavage administered for 7 days and measured everyday relative to control; assay type: functional; conditions: time 7 day
Mus musculus [3] = assay: Anti-ulcerative colitis activity in DSS-induced C57BL/6 mouse ulcerative colitis model assessed as colon length recovery ratio at 3 mg/kg, IG via gavage measured after 7 days relative to control; assay type: functional; conditions: time 7 day
Mus musculus [4] = assay: Antiinflammatory activity against DSS-induced C57BL/6 mouse model of acute ulcerative colitis assessed as inhibition ratio of IL-1beta protein expression at 10 mg/kg, IG via gavage measured after 7 days by ELISA relative to control; assay type: functional; set-up: scale not given: the % may be the effect or the level left; conditions: time 7 day
Mus musculus [5] = assay: Antiinflammatory activity against DSS-induced C57BL/6 mouse model of acute ulcerative colitis assessed as inhibition ratio of IL-6 protein expression at 1 mg/kg, IG via gavage measured after 7 days by ELISA relative to control; assay type: functional; set-up: scale not given: the % may be the effect or the level left; conditions: time 7 day
Mus musculus [6] = assay: Antiinflammatory activity against DSS-induced C57BL/6 mouse model of acute ulcerative colitis assessed as inhibition ratio of TNF-alpha mRNA expression in colon tissue at 1 mg/kg, IG via gavage measured after 7 days by RT-qPCR analysis relative to control; assay type: functional; set-up: scale not given: the % may be the effect or the level left; conditions: time 7 day
Mus musculus [7] = assay: Anti-ulcerative colitis activity in IL-10-/- C57BL/6 mouse model of ulcerative colitis assessed as body weight recovery ratio at 1 mg/kg, IG via gavage for 8 weeks and measured everyday relative to control; assay type: functional
Mus musculus [8] = assay: Antiinflammatory activity against IL-10-/- C57BL/6 mouse model of ulcerative colitis assessed as inhibition ratio of IL-1beta protein expression at 1 mg/kg, IG via gavage and measured after 8 weeks by ELISA relative to control; assay type: functional; set-up: scale not given: the % may be the effect or the level left
Mus musculus [9] = assay: Antiinflammatory activity against IL-10-/- C57BL/6 mouse model of ulcerative colitis assessed as inhibition ratio of IL-1beta protein expression at 3 mg/kg, IG via gavage and measured after 8 weeks by ELISA relative to control; assay type: functional; set-up: scale not given: the % may be the effect or the level left
Mus musculus [10] = assay: Antiinflammatory activity against IL-10-/- C57BL/6 mouse model of ulcerative colitis assessed as inhibition ratio of IL-1beta protein expression at 10 mg/kg, IG via gavage and measured after 8 weeks by ELISA relative to control; assay type: functional; set-up: scale not given: the % may be the effect or the level left
Mus musculus [11] = assay: Antiinflammatory activity against IL-10-/- C57BL/6 mouse model of ulcerative colitis assessed as inhibition ratio of IL-23 mRNA expression in colon tissue at 1 mg/kg, IG via gavage and measured after 8 weeks by RT-qPCR analysis relative to control; assay type: functional; set-up: scale not given: the % may be the effect or the level left
Mus musculus [12] = assay: Antiinflammatory activity against IL-10-/- C57BL/6 mouse model of ulcerative colitis assessed as inhibition ratio of IL-23 mRNA expression in colon tissue at 10 mg/kg, IG via gavage and measured after 8 weeks by RT-qPCR analysis relative to control; assay type: functional; set-up: scale not given: the % may be the effect or the level left
RAW264.7 [13] = assay: Inhibition of MKK3-p38-elF4E signaling pathway in mouse RAW264.7 cells assessed as reduction in LPS-induced MK2 phosphorylation treated for 1.5 hrs followed by LPS treatment for 1 hr by Western blot analysis; assay type: cell-based; conditions: dose 3.125-12.5 µmol/L, time 2.5 hrs, DDE = dose-dependent effect
RAW264.7 [14] = assay: Inhibition of MKK3-p38-elF4E signaling pathway in mouse RAW264.7 cells assessed as reduction in LPS-induced elF4E phosphorylation treated for 1.5 hrs followed by LPS treatment for 1 hr by Western blot analysis; assay type: cell-based; conditions: dose 3.125-12.5 µmol/L, time 2.5 hrs, DDE = dose-dependent effect
[15] = Inhibition of MKK3-p38-elF4E signaling pathway in mouse RAW264.7 cells assessed as inhibition of LPS-induced MKK3 phosphorylation; assay type: cell-based
Mus musculus [16] = assay: Inhibition of MKK3-p38 MAPK-elF4E signaling pathway in C57BL/6 mouse model of acute ulcerative colitis assessed as decrease in DSS-induced MKK3 phosphorylation in colon tissue administered intragastrically via gavage measured after 7 days by Western blot analysis; conditions: dose 1-50 mg/kg, time 7.0 day, DDE = dose-dependent effect
Mus musculus [17] = assay: Inhibition of MKK3-p38 MAPK-elF4E signaling pathway in C57BL/6 mouse model of acute ulcerative colitis assessed as decrease in DSS-induced p38 MAPK phosphorylation in colon tissue administered intragastrically via gavage measured after 7 days by Western blot analysis; conditions: dose 1-50 mg/kg, time 7.0 day, DDE = dose-dependent effect
Mus musculus [18] = assay: Inhibition of MKK3-p38 MAPK-elF4E signaling pathway in C57BL/6 mouse model of acute ulcerative colitis assessed as decrease in DSS-induced Mnk1 phosphorylation in colon tissue administered intragastrically via gavage measured after 7 days by Western blot analysis; conditions: dose 1-50 mg/kg, time 7.0 day, DDE = dose-dependent effect
Mus musculus [19] = assay: Inhibition of MKK3-p38 MAPK-elF4E signaling pathway in C57BL/6 mouse model of acute ulcerative colitis assessed as decrease in DSS-induced elF4E phosphorylation in colon tissue administered intragastrically via gavage measured after 7 days by Western blot analysis; conditions: dose 1-50 mg/kg, time 7.0 day, DDE = dose-dependent effect
Mus musculus [20] = assay: Anti-ulcerative colitis activity against DSS-induced ulcerative colitis C57BL/6 mouse model assessed as body weight recovery rate at 1 mg/kg, IG via gavage administered for 7 days and measured everyday relative to control; assay type: functional; conditions: time 7 day
[21] = Toxicity in C57 mouse assessed as liver damage at 50 to 500 mg/kg, po administered daily for 14 days; assay type: organism-based; conditions: in vivo, 336 h, dose 50-500 mg/kg, time 14 day
Mus musculus [22] = assay: Anti-ulcerative colitis activity against DSS-induced ulcerative colitis C57BL/6 mouse model assessed as reduction in DAI score at 1 mg/kg, IG via gavage administered for 7 days and measured everyday (reference value: 4.0); assay type: functional; conditions: time 7 day
Mus musculus [23] = assay: Anti-ulcerative colitis activity against DSS-induced ulcerative colitis C57BL/6 mouse model assessed as reduction in DAI recovery score ratio at 3 mg/kg, IG via gavage administered for 7 days and measured everyday relative to control; assay type: functional; set-up: scale not given: the % may be the effect or the level left; conditions: time 7 day
Mus musculus [24] = assay: Antiinflammatory activity against IL-10-/- C57BL/6 mouse model of acute ulcerative colitis assessed as decrease in serum IL-6 levels administered intragastrically via gavage measured after 8 weeks by ELISA; assay type: functional, organism-based; conditions: dose 3-10 mg/kg, route ig, DDE = dose-dependent effect
[25] = biological target: T1, Dual specificity mitogen-activated protein kinase kinase 3 (Mus musculus) (UniProt O09110); assay: Binding affinity to MKK3 in mouse RAW264.7 cells assessed as increase in thermal stability at 47 degC incubated for 24 hrs by CETSA; assay type: cell-based; conditions: dose 1-64 µM, DDE = dose-dependent effect
T1 sequence (whole entry): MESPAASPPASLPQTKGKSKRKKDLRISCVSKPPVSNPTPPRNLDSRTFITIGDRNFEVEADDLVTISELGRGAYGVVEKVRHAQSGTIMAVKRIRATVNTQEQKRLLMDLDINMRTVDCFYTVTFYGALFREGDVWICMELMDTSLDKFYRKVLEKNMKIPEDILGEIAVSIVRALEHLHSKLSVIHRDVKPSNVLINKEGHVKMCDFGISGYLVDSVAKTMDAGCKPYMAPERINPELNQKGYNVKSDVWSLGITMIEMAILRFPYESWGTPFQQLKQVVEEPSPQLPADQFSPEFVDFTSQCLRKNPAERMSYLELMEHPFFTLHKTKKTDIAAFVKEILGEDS

Structure (SMILES): COc1ccc([C@H]2CC(=O)c3cc(OC)cc(OC)c32)cc1
- Papp (P-gp (human)): 23.3 ×10⁻⁶ cm/s
- AUC(0-inf) [1]: 8640 ng·h/mL
- Activity (Mus musculus [2]): 22.7%
- Activity (Mus musculus [3]): 51.5%
- Activity (Mus musculus [4]): 64.4%
- Activity (Mus musculus [5]): 40.4%
- Activity (Mus musculus [6]): 68.6%
- Activity (Mus musculus [7]): 13.6%
- Activity (Mus musculus [8]): 40.1%
- Activity (Mus musculus [9]): 50%
- Activity (Mus musculus [10]): 51.8%
- Activity (Mus musculus [11]): 31%
- Activity (Mus musculus [12]): 58.2%
- inhibition (RAW264.7 [13]): Dde
- inhibition (RAW264.7 [14]): Dde
- pIC50 [15]: 5.40
- inhibition (Mus musculus [16]): Dde
- inhibition (Mus musculus [17]): Dde
- inhibition (Mus musculus [18]): Dde
- inhibition (Mus musculus [19]): Dde
- Activity (Mus musculus [20]): 22.7%
- Activity [21]: Non-Toxic
- Activity (Mus musculus [22]): 3.2
- Activity (Mus musculus [23]): 40%
- Activity (Mus musculus [24]): Dde
- Activity [25]: Dde
